Assay results as given in patent US11845770B2, “Ascaroside derivatives and methods of use” (California Institute of Technology, priority 2019, dated 2023).
“Also recorded” adds a separate entry of the source.

Assays:
CYP1A2 = target: T1, CYP1A2 (Homo sapiens, UniProt P05177); test: 5 in 1 CYP inhibition assay, CYP1A2; format: in vitro ADME; settings: microsomes, probe phenacetin (O-deethylation), test compound 10 μM, n=2, read-out: inhibition of cytochrome P450 isoform 1A2
T1 construct: from tissue
T1 sequence (P05177 1-516): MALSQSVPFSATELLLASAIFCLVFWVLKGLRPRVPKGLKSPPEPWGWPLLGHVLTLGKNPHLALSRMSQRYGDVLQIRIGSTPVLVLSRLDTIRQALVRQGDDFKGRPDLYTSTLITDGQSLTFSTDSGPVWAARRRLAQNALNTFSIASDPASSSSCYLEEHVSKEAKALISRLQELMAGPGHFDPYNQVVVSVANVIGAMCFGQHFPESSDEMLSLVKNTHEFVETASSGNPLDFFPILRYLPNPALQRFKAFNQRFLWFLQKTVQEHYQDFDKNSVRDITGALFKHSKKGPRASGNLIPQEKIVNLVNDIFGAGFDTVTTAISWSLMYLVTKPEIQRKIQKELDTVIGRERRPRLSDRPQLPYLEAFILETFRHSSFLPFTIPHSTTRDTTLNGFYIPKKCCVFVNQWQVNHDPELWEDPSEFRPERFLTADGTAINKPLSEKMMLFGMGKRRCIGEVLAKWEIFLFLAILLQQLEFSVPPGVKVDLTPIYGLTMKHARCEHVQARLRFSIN
Procedure: CYP450 dependent activities were determined using a marker substrate cocktail. For each reaction, enzyme activities in the presence and absence of test compound (10 μM) were measured in duplicate. A known inhibitor for each isoform, tested at a single concentration (3 μM, n=2), was included as positive control. Incubation mixtures containing microsomes, substrate, and standard inhibitor or test compound were warmed at 37° C. for 10 minutes. Reactions were initiated by addition of the NADPH and incubated for 10 min. [table] After incubation, ice cold acetonitrile was added to terminate the reaction. Generation of metabolites from the substrate reactions was determined by LC-MS/MS.

[1] = tested on: THP-1 derived macrophages; test: Stimulation of THP-1 cells, cytokine release 72 h post stimulation; format: cell-based, human; settings: 72 h post stimulation (IFN-γ + LPS); 0.1, 1, 10, 100 or 200 μM vs 0 μM
Procedure: Human immortalized monocytic THP-1 cells were maintained in phenol red free RPMI 1640 medium containing 10% (v/v) fetal bovine serum (FBS), 2 mM L-glutamine, penicillin (100 units/mL), streptomycin (100 μg/mL), amphotericin B (2.5 μg/mL), and 50 μM beta-mercaptoethanol (BME) at 37° C. with 5% (v/v) CO2. THP-1 cells were seeded in 1 mL of THP-1 medium (cell culture medium containing 10% (v/v) FBS, 2 mM L-glutamine, penicillin (100 units/mL), streptomycin (100 μg/mL), amphotericin B (2.5 μg/mL), and 50 μM BME)/well at a density of 1 million cells/mL in six-well plates. Cells were differentiated by adding 100 nM phorbol 12-myristate 13-acetate (PMA) to each well before incubating cells for 5.5 h at 37° C. with 5% (v/v) CO2. Without removing the media, different concentrations (either 0, 0.1, 1, 10, 100, or 200 μM) of 1 and 10 were added to each well. Cells were stimulated, within 30 min by adding 20 ng/mL interferon gamma (IFN-γ) and 100 ng/mL lipopolysaccharide (LPS) to each well. Following stimulation, the THP-1 cells were incubated for 72 h at 37° C. with 5% (v/v) CO2. Supernatant was collected and stored at −80° C. until use.
IL-6 release from supernatant collected at 72 hours post stimulation was measured using the AlphaLISA Human IL-6 detection kit.
TNFα release from supernatant collected at 72 hours post stimulation was measured using the AlphaLISA Human TNFα detection kit.

[2] = tested on: BEAS-2B human lung epithelial cells; test: Stimulation of BEAS-2B human lung epithelial cells, cytokine expression; format: cell-based; settings: 48 h
Procedure: BEAS-2B cells were maintained in Bronchial Epithelial Cell Growth Basal Medium (BEBM) containing all the recommended supplements for the Bronchial Epithelial Cell Growth Medium (BEGM; Lonza #CC-4175) and allowed to attain approximately 70% confluency with media changed every 2-3 days at 37° C. with 5% (v/v) CO2. Tissue culture flasks/vessels were pre-coated with a mixture of 0.01 mg/mL fibronectin (Sigma), 0.03 mg/ml bovine collagen type I (Sigma) and 0.01 mg/mL bovine serum albumin dissolved in the BEBM. BEAS-2B cells were seeded with 0.5 ml of 1×10^6 cells/mL in BEGM per well on 24-well plates and incubated overnight at 37° C. with 5% (v/v) CO2. The cells are pre-treated with different concentrations of compounds (0, 1.0, 10, 100, 1000 μM) for 1 hour prior to stimulation. To stimulate the cells, 10 ng/mL of Interleukin-1 beta (IL-1β), 10 ng/mL of Lipopolysaccharides (LPS), or 20 ng/mL of IL-1$ is added to the wells without removing the media and incubated for 48 hours at 37° C. with 5% (v/v) CO2. Supernatants were collected and stored at −80° C. until quantitative detection assays are performed. Human Eotaxin, Monocyte Chemoattractant Protein-1 (MCP-1), Interleukin-6 (IL-6), Interleukin-25 (IL-25), Interleukin-33 (IL-33), Thymic stromal lymphopoietin (TSLP), and Granulocyte-Macrophage Colony-Stimulating Factor (GM-CSF) released from supernatants collected post stimulation were measured using Human Magnetic Luminex® Assay Kit. Human CCL5/RANTES was measured using an Enzyme-Linked Immunosorbent Assay (ELISA)-based analysis.

[3] = 10 ng/mL IL-1β, compound concentration series, FIG. 10A
[4] = 10 ng/mL IL-1β, compound concentration series, FIG. 10B
[5] = at 100 μM, 10 ng/mL IL-1β, FIG. 10A
[6] = at 100 μM, 10 ng/mL IL-1β, FIG. 10B
[7] = 10 ng/mL LPS, compound concentration series, FIG. 11A
[8] = 10 ng/mL LPS, compound concentration series, FIG. 11B

Q: For `C[C@H](CC/C=C/C(=O)OC(C)(C)C)O[C@@H]1O[C@@H](C)[C@H](O)C[C@H]1O` [Compound 1, tert-butyl (2E,6R)-6-{[(2R,3R,5R,6S)-3,5-dihydroxy-6-methyloxan-2-yl]oxy}hept-2-enoate], which inhibition at 10 min, 10 µM (CYP1A2) is on record?
A: 10.9%

Q: And the “fold change of IL-6 levels secreted by the THP1-derived macrophages” value [1]?
A: reduced these levels significantly; also recorded: even more significantly reduced

Q: And the “fold change of TNFα levels secreted by the THP1-derived macrophages” value [1]?
A: reduced these levels significantly

Q: And the “percent inhibition relative to Stimulated of IL-25 expression” value [2, 3]?
A: statistically significant, dose-dependent inhibition

Q: And the “percent inhibition relative to Stimulated of Eotaxin expression” value [2, 4]?
A: statistically significant, dose-dependent inhibition

Q: And the “percent inhibition relative to Stimulated of IL-6 expression” value [2, 5]?
A: statistically significant, complete inhibition

Q: And the “percent inhibition relative to Stimulated of IL-8 expression” value [2, 5]?
A: statistically significant, complete inhibition

Q: What about the “percent inhibition relative to Stimulated of IL-25 expression” value [2, 5] of the same compound?
A: statistically significant, complete inhibition

Q: What about the “percent inhibition relative to Stimulated of IL-33 expression” value [2, 5] of the same compound?
A: statistically significant, complete inhibition

Q: What about the “percent inhibition relative to Stimulated of GM-CSF expression” value [2, 6] of the same compound?
A: statistically significant, complete inhibition

Q: And the “percent inhibition relative to Stimulated of MCP-1 expression” value [2, 6]?
A: statistically significant, complete inhibition

Q: What about the “percent inhibition relative to Stimulated of TSLP expression” value [2, 6] of the same compound?
A: statistically significant, complete inhibition

Q: What about the “inhibition of expression of multiple inflammatory cytokines (IL-6, IL-8, IL-25, IL-33)” value ([2]; at 100 μM, 10 ng/mL LPS, FIG. 11A) of the same compound?
A: complete, statistically significant inhibition

Q: What about the “inhibition of expression of multiple inflammatory cytokines (GMCSF, MCP-1, TSLP)” value ([2]; at 100 μM, 10 ng/mL LPS, FIG. 11B) of the same compound?
A: statistically significant, complete inhibition

Q: `C[C@H](CC/C=C/C(=O)O)O[C@@H]1O[C@@H](C)[C@H](O)C[C@H]1O` [ascr #7, reference compound] was tested. Which inhibition at 10 min, 10 µM (CYP1A2) did it give?
A: 2.3%

Q: What about the “fold change of IL-6 levels secreted by the THP1-derived macrophages” value [1] of the same compound?
A: significantly reduced

Q: And the “percent inhibition relative to Stimulated of IL-6 expression” value [2, 3]?
A: did not show convincing inhibition

Q: What about the “percent inhibition relative to Stimulated of IL-8 expression” value [2, 3] of the same compound?
A: did not show convincing inhibition

Q: And the “percent inhibition relative to Stimulated of IL-25 expression” value [2, 3]?
A: statistically significant, dose-dependent inhibition

Q: What about the “percent inhibition relative to Stimulated of IL-33 expression” value [2, 3] of the same compound?
A: did not show convincing inhibition

Q: What about the “percent inhibition relative to Stimulated of Eotaxin expression” value [2, 4] of the same compound?
A: statistically significant, dose-dependent inhibition

Q: And the “percent inhibition relative to Stimulated of GM-CSF expression” value [2, 4]?
A: did not demonstrate convincing inhibition

Q: And the “percent inhibition relative to Stimulated of MCP-1 expression” value [2, 4]?
A: did not demonstrate convincing inhibition

Q: And the “percent inhibition relative to Stimulated of TSLP expression” value [2, 4]?
A: did not demonstrate convincing inhibition

Q: And the “percent inhibition relative to Stimulated of IL-6 expression” value [2, 7]?
A: did not show convincing inhibition

Q: And the “percent inhibition relative to Stimulated of IL-8 expression” value [2, 7]?
A: did not show convincing inhibition

Q: And the “percent inhibition relative to Stimulated of IL-25 expression” value [2, 7]?
A: did not show convincing inhibition

Q: What about the “percent inhibition relative to Stimulated of IL-33 expression” value [2, 7] of the same compound?
A: did not show convincing inhibition

Q: And the “percent inhibition relative to Stimulated of GM-CSF expression” value [2, 8]?
A: did not show convincing inhibition

Q: What about the “percent inhibition relative to Stimulated of MCP-1 expression” value [2, 8] of the same compound?
A: did not show convincing inhibition

Q: And the “percent inhibition relative to Stimulated of TSLP expression” value [2, 8]?
A: did not show convincing inhibition

Q: What about the “percent inhibition relative to Stimulated of IL-25 expression” value ([2]; 20 ng/mL IL-1β, compound concentration series, FIG. 12) of the same compound?
A: statistically significant, dose-dependent blocking

Q: And the “percent inhibition relative to Stimulated of Eotaxin expression” value ([2]; at 10 and 100 μM, 20 ng/mL IL-1β, FIG. 13)?
A: statistically significant, almost complete blocking
